Patent US10231472B2, “Zilpaterol animal premix formulation” (Intervet Inc., priority 2015, dated 2019)
Where a name gives a salt, the structure may show the parent alone.

How the values were obtained:
[1] = Solubility of zilpaterol HCl in solvents; type: physicochemical
Protocol: For some drugs that have a good solubility profile formulations can be prepared by dissolving the drug into a solvent and then mixing the resulting solution with additional excipient/carriers to prepare a suitable dosage form (premix, tablets, etc.). This approach works best when the drug concentration is very low and the drug has good solubility. If an excess amount of liquid is added during manufacture a wet mass can be formed that is difficult to process and needs to be dried to remove excess solvent. Drying adds additional cost and complexity to the manufacturing process.
(§1) However since solubility of the drug was poor in propylene glycol, a significant additional amount of propylene glycol was needed (27.6%) to fully solubilize the drug. Since propylene glycol is viscous/sticky, this larger amount of propylene glycol could not be added to the corn cob carrier without causing the product to be sticky which results in poor flow properties. To address this problem, a premix containing only 6% propylene glycol and 2% water was prepared by heating the liquid mixture of zilpaterol HCl to a high temperature and creating a supersaturation of zilpaterol HCl in the propylene glycol/water vehicle. This was successful in fully solubilizing the zilpaterol HCl without needing to add additional liquids. […] When this hot supersaturated solution is added to a dry carrier, it is easily absorbed and mixed and the combination becomes dry and free flowing. Excellent uniformity is obtained, and product safety is improved since free solid drug particles are avoided.

[2] = Stability of zilpaterol in liquid vehicles at high temperature; type: physicochemical
Protocol: as §1
Propylene glycol is the preferred solvent.

solubility of the drug in premix liquid ([1]; premix with 0.8% zilpaterol HCl, 6% propylene glycol and 2% water, without heating): not fully soluble
solubility in propylene glycol ([1]; propylene glycol): 2.9%
solubility ([1]; water): 130 mg/mL
stability in propylene glycol alone ([2]; after 45 days at 60° C., propylene glycol alone): 95.2%
stability in solution, temperature ([2]; supersaturated solution in propylene glycol/water vehicle): ≤ 90 °C
SMILES: CC(C)NC1CCn2c(=O)[nH]c3cccc(c32)C1O (centres unmarked) [Zilpaterol HCl, 4,5,6,7-tetrahydro-7-hydroxy-6-(isopropylamino) imidazo[4,5,1-jk]-[1]benzazepin-2(1H)-one]
